Here are results for five molecules from publication PMC10451623 (Antioxidants, 2023).

Test [1] deals with T1, PPARα-LBD (Homo sapiens, UniProt Q07869).
T1 sequence (Q07869 200-468): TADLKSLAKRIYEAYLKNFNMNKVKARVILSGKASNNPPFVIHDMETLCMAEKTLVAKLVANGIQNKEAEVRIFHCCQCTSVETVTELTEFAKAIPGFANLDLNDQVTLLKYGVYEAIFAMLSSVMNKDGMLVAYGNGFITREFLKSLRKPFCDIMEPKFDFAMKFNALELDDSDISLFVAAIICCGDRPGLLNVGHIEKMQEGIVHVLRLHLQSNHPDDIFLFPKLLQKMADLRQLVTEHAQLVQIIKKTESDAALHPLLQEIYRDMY
Kind of test: Thermal stability assay using circular dichroism spectroscopy. The format is binding. Set-up: Human PPARα-LBD (amino acids 200–468); His tag (pET28a) (N); made in house; host or cells: Rosetta (DE3) pLysS (E. coli). As to conditions: CD at 222 nm; 10 µM LBD; GW7647 at 10 µM. The procedure: (§1) PPARα/δ/γ-LBD proteins (10 µM) were incubated with different concentrations of ligands in buffer C consisting of 20 mM Tris-HCl (pH 8.0), 150 mM NaCl, 1 mM Tris 2-carboxyethylphosphine (TCEP)-HCl, and 10% glycerol. The circular dichroism (CD) spectra were monitored within a 200–260 nm range at increasing temperatures from 30 °C to 70 °C (2 °C/min) using a J-1500 spectropolarimeter equipped with a PTC-510 thermal controller (JASCO, Tokyo, Japan). […] The ligand-induced increases in the Tm values were defined as ∆Tm.
(§2) Nuclear receptors, including PPARs, display an increased thermal stability upon ligand binding, which is detectable through CD spectroscopy.
(§3) Figure 3 Circular dichroism-based PPARα/δ/γ-LBD thermal stability assay. […] Data are presented as the mean ± SE of three or four (in parentheses) independent experiments. Differences vs. basal levels (with 0.1% DMSO) were statistically assessed by one-way ANOVA, followed by a Dunnett’s post hoc test: * p < 0.05, ** p < 0.01, and *** p < 0.001.

Test [2] has as its target T1, PPARα-LBD. Set-up: Human PPARα-LBD (amino acids 200–468); made in house; host or cells: Rosetta (DE3) pLysS (E. coli); method as in PMID 33205029. The settings on record: read-out: EC50 in the PGC1α recruitment activity (PPARα); cited from earlier work.
Test [3] concerns the target T2, human PPARδ (Homo sapiens, UniProt Q03181).
T2 construct: expressed in transfected cells; host or cells: COS-7
T2 sequence (Q03181 211-439 limits assumed): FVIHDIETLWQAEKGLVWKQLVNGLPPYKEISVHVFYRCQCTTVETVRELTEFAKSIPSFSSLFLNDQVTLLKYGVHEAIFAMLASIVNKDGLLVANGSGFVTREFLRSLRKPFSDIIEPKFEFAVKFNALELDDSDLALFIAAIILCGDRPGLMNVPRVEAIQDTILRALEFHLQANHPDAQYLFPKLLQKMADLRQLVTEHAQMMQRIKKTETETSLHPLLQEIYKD
In words: Transactivation assay (GAL4–hPPARδ-LBD chimera, luciferase reporter, COS-7 cells). The format is cell-based. As to conditions: COS-7, read-out: Efficacy, PPARδ transactivation (% of the maximal response). The procedure:
(§4) The pSG5-GAL–hPPARα/δ/γ plasmids express fusion proteins comprising the yeast transcription factor GAL4 DNA-binding domain and each of the human PPARα/δ/γ-LBDs. The MH100(UAS)×4-tk-Luc plasmid contains four copies of the MH100 GAL4 binding site and the Firefly luciferase gene. The cells were transfected with those plasmids and were treated with various PPAR ligands, and both Firefly and Renilla luciferase activities were measured using the Dual-Glo Luciferase Assay System (Promega, Madison, WI, USA) as described previously. […] GW1929 was purchased from Sigma-Aldrich (St. Louis, MO, USA).
(§5) For the undertaking of the comparison of the potency, efficacy, and selectivity of the five PPAR ligands (Figure 1A) against the PPAR subtypes, we evaluated their PPARα/δ/γ activation using three different methods: a cell-based transactivation assay, a coactivator recruitment assay, and a thermal stability assay, as we previously performed on three fibrates (namely, bezafibrate, fenofibric acid, and pemafibrate). The cell-based transactivation assay utilizing the Gal4–PPAR-LBD system is the most widely used method for the determination of PPAR activation by certain ligands, although their responses depend on the used cell types in which several coactivators with altered functions are differentially expressed.
(§6) Figure 1 LBD-mediated human PPARα/δ/γ transactivation by PPAR ligands. (A) Chemical structures of the five PPAR ligands used in this study. […] Data are presented as the mean ± standard error (SE) of three independent experiments with duplicate samples.

For test [4], the target named is T3, PPARδ-LBD (Homo sapiens, UniProt Q03181).
T3 sequence (Q03181 170-441): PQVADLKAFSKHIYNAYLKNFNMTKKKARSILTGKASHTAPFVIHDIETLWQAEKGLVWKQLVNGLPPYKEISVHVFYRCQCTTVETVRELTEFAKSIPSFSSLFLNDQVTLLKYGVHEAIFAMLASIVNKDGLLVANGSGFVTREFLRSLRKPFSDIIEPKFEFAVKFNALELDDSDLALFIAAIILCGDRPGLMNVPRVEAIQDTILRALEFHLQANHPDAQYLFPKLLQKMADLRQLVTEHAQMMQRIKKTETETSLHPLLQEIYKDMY
In words: Thermal stability assay using circular dichroism spectroscopy. The format is binding. Set-up: PPARδ-LBD (amino acids 170–441); His tag (pET28a) (N); made in house; host or cells: Rosetta (DE3) pLysS (E. coli). As to conditions: CD at 222 nm; 10 µM LBD; GW501516 at 50 µM. The procedure:
as §1, §2, §3

In test [5] the target is T4, human PPARα (Homo sapiens, UniProt Q07869).
T4 construct: expressed in transfected cells; host or cells: COS-7
T4 sequence (Q07869 239-466 limits assumed): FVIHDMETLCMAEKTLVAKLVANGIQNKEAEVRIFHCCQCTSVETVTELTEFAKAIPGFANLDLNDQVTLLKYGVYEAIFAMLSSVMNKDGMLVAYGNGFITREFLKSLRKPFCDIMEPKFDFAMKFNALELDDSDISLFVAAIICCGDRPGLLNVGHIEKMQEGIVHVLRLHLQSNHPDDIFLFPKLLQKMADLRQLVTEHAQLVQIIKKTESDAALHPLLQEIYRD
In words: Transactivation assay (GAL4–hPPARα-LBD chimera, luciferase reporter, COS-7 cells). The format is cell-based. The settings on record: 100% = 1 µM GW7647, read-out: Efficacy, PPARα transactivation (% of the maximal response). The procedure:
as §4, §5, §6

The target in test [6] is T5, PPARγ-LBD (Homo sapiens, UniProt P37231).
T5 sequence (P37231 203-477 isoform P37231-2): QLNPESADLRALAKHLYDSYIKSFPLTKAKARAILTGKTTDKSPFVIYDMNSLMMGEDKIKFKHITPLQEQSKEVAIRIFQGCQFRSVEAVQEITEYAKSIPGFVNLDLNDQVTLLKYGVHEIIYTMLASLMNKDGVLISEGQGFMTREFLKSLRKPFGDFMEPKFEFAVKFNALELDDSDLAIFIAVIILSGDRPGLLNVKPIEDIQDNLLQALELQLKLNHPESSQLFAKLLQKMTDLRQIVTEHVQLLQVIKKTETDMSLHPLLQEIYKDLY
Kind of test: Thermal stability assay using circular dichroism spectroscopy. The format is binding. Details: PPARγ-LBD (amino acids 203–477 in isoform 1); His tag (pET28a) (N); made in house; host or cells: Rosetta (DE3) pLysS (E. coli). As to conditions: CD at 222 nm; 10 µM LBD; GW1929 at 10 µM. The procedure:
as §1, §2, §3

In test [7] the target is T6, Human PPARα-LBD (amino acids 200–468), amino-terminal His-tagged (human, UniProt Q07869 200-468).
T6 construct: The His tag is detected by the anti-6xHis antibody in the TR-FRET assay; A delipidized preparation was used for some PPARα crystals; also called hPPARα-LBD; not shown: His tag, N-terminal, kept
T6 sequence (looked up): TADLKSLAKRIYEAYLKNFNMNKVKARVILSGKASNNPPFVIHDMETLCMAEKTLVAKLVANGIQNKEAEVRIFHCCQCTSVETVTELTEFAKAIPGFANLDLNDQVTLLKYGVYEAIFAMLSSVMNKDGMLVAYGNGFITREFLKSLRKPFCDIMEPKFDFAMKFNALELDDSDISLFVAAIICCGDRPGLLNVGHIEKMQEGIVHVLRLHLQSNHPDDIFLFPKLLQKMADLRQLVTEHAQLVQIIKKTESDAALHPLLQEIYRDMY
Kind of test: FRET or BRET; LANCE Ultra TR-FRET; His-tagged LBD (400 nM solution, 9.5 µL) + biotin-PGC1α (4 µM, 5 µL) or biotin-SRC1 peptide (8 µM, 5 µL), Eu-W1024 anti-6×His antibody / ULight-Streptavidin, 2 h, room temperature; buffer A (10 mM HEPES-NaOH pH 7.4, 150 mM NaCl, 0.005% Tween 20, 0.1% BSA) for PPARα/γ-LBD, buffer B (50 mM HEPES-NaOH pH 7.4, 50 mM KCl, 1 mM EDTA, 0.5 mM DTT, 0.1% BSA) for PPARδ-LBD; ligand: reference …. The settings on record: both partners purified.

As a reminder, the EC50 is the midpoint of the concentration-response curve.

No end group written: not given here. *: point of attachment. Biotin = O=C1N[C@H]2[C@H](CS[C@H]2CCCCC(=O)*)N1

In the case of `CC(C)(Sc1ccc(CCN(CCCCC2CCCCC2)C(=O)NC2CCCCC2)cc1)C(=O)O` [GW7647], the “Effect on Tm of PPARα-LBD (in words)” value in test [1] was “highly increased Tm values”.
Regarding `CC(C)(Oc1ccc(Cl)cc1)C(=O)O` [clofibric acid], the concentration for a half-maximal effect (EC50) in test [2] was 574 µM.
Turning to `CCc1ccc(CCOc2ccc(CC3SC(=O)NC3=O)cc2)nc1` (centres unmarked) [pioglitazone], the Emax in test [3] amounted to 0.518%; in test [5], 25.2%. Also, the “Effect on Tm of PPARδ-LBD (in words)” value in test [4] was “no effects”. The “Effect on Tm of PPARα-LBD (in words)” value in test [1] is reported as “no effects”.
As for GW1929, the “Effect on Tm of PPARγ-LBD (in words)” value in test [6] was “highly increased Tm values”.

B1: biotin-labeled PPARγ coactivator 1α (PGC1α) coactivator peptide (amino acids 137–155) (peptide)
peptide: Biotin-EAEEPSLLKKLLLAPANTQ
notes: also called biotin-PGC1α; source: synthetic peptide (GenScript)
On to B1, for which, in test [7], the binding result is “binds”.
